Assay results taken from patent US20010048926A1, “SYNTHETIC PEPTIDE VACCINES FOR DENTAL CARIES” (priority 1992, published 2001).

Key:
anti-GGY serum = test: Epitope mapping by ELISA inhibition, anti-GGY serum on GGY-coated plates; assay type: binding, rat; conditions: anti-GGY serum preincubated with heptamer or intact peptide; FIG. 8
Experimental: Epitope Mapping: B cell epitopes were mapped on the GGY and AND peptides by an ELISA inhibition technique. Anti-GGY or anti-AND sera were preincubated with 13 separate heptamers representing the incremental peptide sequence of the respective peptide, or with intact peptide, followed by the conventional ELISA with intact peptide-coated plates. B cell epitopes were indicated by a significant reduction in absorbance.

[1] = system: inducing peptide construct; test: ELISA of serum IgG antibody to the inducing (homologous) peptide construct in immunized rats; assay type: in vivo, Sprague Dawley rats; conditions: for IgG antibody levels to GGY: pre-infection sera
Experimental: (§1) Immunogenicity of Peptides: Sprague Dawley CD strain 43 day-old male rats (Charles River Laboratories) were used for injection. Six groups of 4-5 rats were injected subcutaneously in the vicinity of the salivary glands with 50 μg each of GGY, AND, SAND or CAT peptide constructs, 10 μg of GTF, or sham-immunized with buffer alone. The initial injection included complete Freund adjuvant (CFA; Difco); two subsequent injections at 21-day intervals included incomplete Freund adjuvant. Animals were bled prior to injection and 14-21 days after each injection. Serum from coagulated and centrifuged blood was stored frozen at −20° C. until use.
(§2) ELISA: Serum IgG and salivary IgA antibodies were tested by enzyme-linked immunosorbent assay (ELISA). Polystyrene microtiter plates (Flow Laboratories) were coated with […] of each peptide construct or 0.5 μg of S. sobrinus GTF. Antibody activity was then measured by incubation with 1:100 to 1:10^6 dilutions of sera, or 1:4 to 1:32 dilutions of saliva. Plates were then developed for IgG antibody rabbit anti-rat IgG followed in sequence by alkaline phosphatase goat anti-rabbit IgG (Biosource Inc.) and p-nitrophenylphosphate (Sigma). A mouse monoclonal reagent to rat α chain (Zymed, South San Francisco, Calif.) was used with biotinylated goat anti-mouse IgG (TAGO, Inc., Burlingame, Calif.) and avidin-alkaline phosphatase (Cappel) to reveal levels of salivary IgA antibody to peptides. Reactivity was recorded as absorbance (A405 nm) in a micro plate reader (Biotek Instruments). Data are reported as absorbance (A405 nm), reciprocal titer, or as ELISA units (EU) which were calculated relative to the levels of appropriate reference sera or salivas from Sprague Dawley rats thrice immunized with the respective peptide construct. Dilutions of 1:12,800 and 1:6,400 (A405 nm approximately 1.0) were considered 100 EU for serum IgG to the GGY and AND constructs, respectively. Dilutions of 1:32 were considered 100 EU for salivary IgA to both GGY and AND constructs.
(§3) Two experiments were performed. Groups (n=11-12) of 23-26 day-old rats were subcutaneously (sc) injected in the salivary gland vicinity with (experiment 1) GGY (50 μg), AND (50 μg) or GTF(10 μg), or phosphate buffered saline (control animals), or (experiment 2) GGY (50 ;μg) or PBS. Each antigen was incorporated with complete Freund adjuvant in both experiments. Eight (experiment 1) or 14 (experiment 2) days later, rats were reinjected with PBS or with the same antigen and dose in incomplete Freund adjuvant. Six (experiment 1) or 12 (experiment 2) days after the second injection, animals were bled from the tail vein, and saliva was collected after injection of pilocarpine (1.0 mg/100 g body weight). Fourteen (experiment 1) or 11 (experiment 2) days after the second injection, all rats were orally infected with approximately 10^8 S. mutans for 3 consecutive days. Both experiments were terminated 63 days after initial infection.
Two experiments were performed to measure the effect of immunization with the eight-branched GGY and AND peptide constructs on experimental dental caries in the Sprague-Dawley rat. In the first experiment, groups of rats were immunized with GGY or AND peptide constructs. In the second experiment groups of rats were immunized only with the GGY peptide construct. Pre-infection sera and salivas were collected for antibody measurement in 39 day old rats in experiment 1 (6 days after the second injection) and 51 day old rats in experiment 2 (12 days after the second injection). In the GGY-immunized rat groups, IgG antibody levels to GGY (experiment 1=21.9+17.8 EU; experiment 2=108.0±4.0 EU) were elevated above those of the sham-immunized groups (experiment 1=1.7±0.2 EU; experiment 2=4.0±3.0 EU) in both experiments and reached statistical significance (p<0.002) in experiment 2.

S. mutans SJ32 = test: Protection experiments: caries assessment (modified Keyes method) after S. mutans infection; assay type: in vivo, Sprague-Dawley rats
From the text: Experimental Protocol for Protection Experiments: Animals used in the present experiments were derived from germ-free Sprague-Dawley rats that had been reared in the isolator facility of Charles River Laboratories, Wilmington, Mass. (Area 051). […] These rats served as initial breeding stock for dams used in these experiments and were regularly monitored for absence of mutans streptococci. The progeny of the dams used for the present experiments were weaned at approximately 21 days and were subsequently fed high sucrose Diet 2000.
as §3
Caries assessment: The extent and depth of carious lesions in all rat molar teeth (caries score) were microscopically evaluated by a modified Keyes method as previously described (Taubman et al., J. Immunol. 118:710-720 (1977)). Caries scores were determined separately on smooth and on sulcal dental surfaces.

CAT peptide construct = target: T1, CAT peptide construct (Streptococcus mutans serotype c, UniProt P08987); test: Cross-reactivity ELISA, plates coated with CAT peptide construct; assay type: binding; conditions: day 63 sera; FIG. 4
T1 construct: residues 442-462 of S. mutans GTF-B; purchased Applied Diagnostics, Foster City, Calif; host or cells: chemical solid phase synthesis
T1 sequence (P08987 442-462 limits assumed): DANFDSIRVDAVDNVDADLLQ
Experimental: as §1
ELISA: Serum IgG and salivary IgA antibodies were tested by enzyme-linked immunosorbent assay (ELISA). Polystyrene microtiter plates (Flow Laboratories) were coated with […] of each peptide construct or 0.5 μg of S. sobrinus GTF. Antibody activity was then measured by incubation with 1:100 to 1:10^6 dilutions of sera, or 1:4 to 1:32 dilutions of saliva. […] Reactivity was recorded as absorbance (A405 nm) in a micro plate reader (Biotek Instruments). Data are reported as absorbance (A405 nm), reciprocal titer, or as ELISA units (EU) which were calculated relative to the levels of appropriate reference sera or salivas from Sprague Dawley rats thrice immunized with the respective peptide construct. […]

S. sobrinus GTF = test: ELISA of serum IgG antibody reacting with intact S. sobrinus GTF; assay type: in vivo; conditions: 63 day sera, n=4-5 per group; FIG. 3
From the text: Glucosyltransferases: Glucosyltransferases (GTF) from S. sobrinus strain 6715 were purified from culture supernatants after bacterial growth in glucose-containing defined media, as described in Taubman et al. (J. Oral Pathol. 17:466-470 (1988)). Enzymes were separated from other culture supernatant proteins by affinity chromatography on Sephadex G-100 (Pharmacia Fine Chemicals), using 6M guanidine HCl as the eluting solvent. GTFs were then obtained from the guanidine HCl eluate by FPLC chromatography on Superose 6 (Pharmacia) using 6M guanidine for elution. GTF preparations contained a mixture of GTF-I, GTF-Sd, and GTF-Si.
as §1, §2

In the case of GGYEFLLANDVDNSNPVVQ, the “inhibition of GGY antibody binding to intact peptide-coated plates” value (anti-GGY serum) is reported as “completely inhibited”, the “responding rats (serum IgG)” value ([1]; immunization began on day 43 of life, bled 21 days later (day 64 of life), immunogenicity experiment) is reported as 4/4 and the “immunogenicity (percentage of animals responding and titer of responding sera)” value ([1]; immunogenicity experiment, FIG. 1) is reported as “at least as high as observed for the positive control CAT peptide”. The “effect of subsequent immunization on serum IgG titers” value ([1]; immunogenicity experiment, day 21 (one injection) vs day 63 (three injections)) was “sufficient to induce maximal serum IgG antibody to GGY”, the “serum IgG antibody to the inciting antigen after the first injection” value ([1]; immunogenicity experiment, rats 43 days old at start, 50 μg sc in CFA, day 21) was “induced serum IgG antibody to the inciting antigen after the first injection in all rats” and the “IgG antibody levels to GGY” value ([1]; protection experiment 1, 39 day old rats, 6 days after the second injection) was 21.9 ± 17.8 EU. The “levels of serum IgG antibody (in words)” value ([1]; protection experiment 1, weanling rats, two injections eight days apart, bled 14 days after onset (day 39 of life)) was “modest levels”, the “IgG antibody levels to GGY” value ([1]; protection experiment 2, 51 day old rats, 12 days after the second injection, p<0.002 vs sham) was 108.0±4.0 EU and the “positively responding rats (serum IgG)” value ([1]; protection experiment 2, weanling rats, two injections 14 days apart, bled 26 days after onset (day 51 of life)) was 8/11. For the same sequence, the “levels of serum IgG antibody (in words)” value ([1]; protection experiment 2, weanling rats, two injections 14 days apart, bled day 51 of life) was “significantly elevated levels of serum IgG antibody”, the “mean and median total, smooth surface, and occlusal caries scores vs sham-injected group” value (S. mutans SJ32; both experiments) was “lower than the respective scores of the sham-injected group” and the “Total molar caries scores vs sham-injected groups” value (S. mutans SJ32; both experiments, p<0.05) was “significantly lower”. For the same sequence, the “smooth surface caries vs sham-injected group” value (S. mutans SJ32; experiment 1, GGY p<0.032, GTF p<0.045) was “Protection was most evident on smooth surfaces”, the “smooth surface caries vs sham-injected group” value (S. mutans SJ32; experiment 2, p<0.027) was “Protection was most evident on smooth surfaces” and the “protection after infection of rats with cariogenic S. mutans” value (S. mutans SJ32; summary statement) was “significant protection”. The “reaction of serum IgG antibody with the CAT peptide” value (CAT peptide construct) was “low but significant reaction” and the “IgG antibody reactivity with intact S. sobrinus GTF” value (S. sobrinus GTF) was “significant reactivity with GTF”.
